From patent publication US20090030066A1, “SMALL MOLECULES FOR THE PROTECTION OF PANCREATIC CELLS” (priority 2007, published 2009)

Tests used:
[1] = test system: human mesenchymal stem cells; assay: Survival/attachment of human mesenchymal stem cells, compound present during plating; type: cell-based; conditions: 5-10 μM, 10% or 2% serum, 24 h
Text: Bone marrow aspirates were taken from normal adult donors signed after informed consent according to a protocol approved by the appropriate Ethics Committee. For the preparation of bone marrow mesenchymal stem cells, essentially a widely used technique was used as described earlier by others [Pittenger, M. F., Mackay, A. M., Beck, S. C., Jaiswal, R. K., Douglas, R., Mosca, J. D., Moorman, M. A., Simonetti, D. W., Craig, S, and Marshak, D. R., Multilineage potential of adult human mesenchymal stem cells (1999) Science 284, 143-147]. Briefly, nucleated cells were isolated with a pre-prepared commercial density gradient (Lymphoprep, Nycomed, Pharma, Oslo, Norway) and resuspended in Dulbecco's modified Eagle's medium (DMEM) (GIBCO, Grand Island, N.Y.) supplemented with 10% fetal calf serum (FCS), 50 U/ml of penicillin, and 50 μg/ml of streptomycin (GIBCO). All nucleated cells were plated in 25-cm^2 flasks (BD Falcon, Bedford, Mass.) at 37° C. in humidified atmosphere containing 5% CO2. […] When cells grew to about 80% confluence, they were suspended and harvested by incubating with a ready-made solution containing 0.25% trypsin and 1 mM EDTA (Sigma-Aldrich, St. Louis, Mo.) for 5 minutes at 37° C.; this cell suspension is designated as passage 1. […]
The total numbers of nucleated and viable cells were determined with a hemocytometer, using Turck's solution and trypan blue stain, respectively. […]

L-arginine-treated rats = assay: L-arginine-treated rat model of necrotic pancreatitis; type: in vivo
Text: L-arginine-treated rats are frequently used experimental tools to model necrotic pancreatitis [Krajewski, E., Krajewski, J., Spodnik, J. H., Figarski, A. and Kunasik-Juraniec, J. (2005) Changes in the morphology of the acinar cells of the rat pancreas in the oedematous and nectoric types of experimental acute pancreatitis. Folia Morphol. 64, 292-303]. L-arginine is a precursor of NO which primarily destroys the exocrine pancreas with subsequent damage of insulin producing islet cells. Just like pancreatitis is often associated with elevated blood glucose level in human patients, extensive damage of pancreas in the L-arginine-treated animal model also results in damaged function of β-cells as indicated by higher blood glucose levels. In this example, the L-arginine-treated rat model was employed to see if CCompound1 could also prevent or reduce deterioration of β-cell function and the damage of the exocrine pancreas.
Male Wistar rats weighing 220-250 g were divided into four groups, each group consisting of 6 animals. To ensure standard conditions animals were starved for 16 hours before the start of the experiment. CCompound1 was first injected 24 hours prior to L-arginine injection, followed by similar daily injections for 5 consecutive days. In the first group, rats remained untreated. On day 0, animals in groups 2-4 were injected 2×2.5 g/kg L-arginine i.p. at one hour intervals. Animals in group 4 also received daily s.c. injection of 4.5 mg/kg of CCompound1 between days −1 and 5. To verify development of acute pancreatitis, 24 hours after L-arginine injections rats in group 2 were anesthetized with 45 mg/kg pentobarbital i.p. and exsanguinated through the abdominal aorta. On day 0, 2, 4 and 6 blood sugar values of the experimental animals were measured after fasting for 8 hours with the C-test; blood samples were taken from the tail. Edema of the pancreatic tissue was assessed by the pancreatic weight/body weight ratio. The animals in the remaining groups were sacrificed on day 7.
For histological examinations, a portion of the head of the pancreas was fixed in 4% neutral formaldehyde solution and embedded in paraffin. Tissue slices were stained with hematoxylin and eosin and examined by light microscopy. Slices were coded and examined blind by a pathologist for the grading of histological alterations. The extent and intensity of pancreatic edema, leukocyte infiltration, acinar vacuolization, hyperemia and tubular transformation were described with scores ranging from 0 to 3. The total histological damage was calculated by adding the scores for the various below listed parameters together.
Hyperemia; defined as the amount of red blood cells in the vessels.
Edema; defined as the widening of interstitial space.
Vacuolization; defined as the formation of vacuoles in the cytoplasm of acinar cells. Vacuolization results from the fusion of zymogene granules and lysosomes.
Inflammation; defined and quantified by the infiltration of the tissue with mononuclear inflammatory cells (lymphocytes, plasma cells, and mast cells).
Necrosis; defined as the measure of the extent of the destruction of normal pancreatic tissue structure.
Tubular transformation; defined as desquamation of acinar cell apical cytoplasm and release of cytoplasm segments into the acinar lumen leading to formation of duct-like tubular complexes. (Elsässer H. P., Adler G and Kern H. F. (1986) Time course and cellular source of pancreatic regeneration following acute pancreatitis in the rat. Pancreas 1 (5) 421-9).
Total histological damage (total damage); defined and calculated by combining the histological scores of the above mentioned parameters (except vacuolization). This value is the generally accepted best representation of the severity of pancreatitis in the art. […]

[2] = L-arginine + compound, pancreas, day 7

## Cc1c(OCC(O)C[N+](C)(C)C)cc2c(=O)c3ccccc3sc2c1C.[Cl-] (stereo not shown) [CCcompound1, [3-(3,4-Dimethyl-9-oxo-9H-thioxanthen-2-yloxy)-2-hydroxypropyl]trimethyl-ammonium chloride]
[1]
  effect on number of attached cells: enhanced the number of attached cells
L-arginine-treated rats; 4.5 mg/kg s.c. daily
  effect on L-arginine-stimulated blood glucose: reduced L-arginine-stimulated blood glucose to control level
L-arginine-treated rats; L-arginine 2×2.5 g/kg i.p. day 0 + compound 4.5 mg/kg s.c. daily days −1 to 5, fasted 8 h, day 0
  Blood glucose: 6.28 ± 0.31 mM
L-arginine-treated rats; L-arginine + compound
  effect on tissue necrosis: significant reduction in tissue necrosis
L-arginine-treated rats; L-arginine + compound 4.5 mg/kg s.c. daily, fasted 8 h, day 2
  Blood glucose: 6.46 ± 0.33 mM
L-arginine-treated rats; L-arginine + compound 4.5 mg/kg s.c. daily, fasted 8 h, day 4
  Blood glucose: 6.26 ± 0.21 mM
L-arginine-treated rats; L-arginine + compound 4.5 mg/kg s.c. daily, fasted 8 h, day 6
  Blood glucose: 6.00 ± 0.49 mM
L-arginine-treated rats; L-arginine + compound, day 7, immunohistochemistry of pancreas
  insulin staining score (scale 0 to 3): 2.45±0.30
L-arginine-treated rats; [2]
  Edema histological score (0 to 3): 1.33 ± 0.21
  Hyperemia histological score (0 to 3): 1.17 ± 0.17
  Inflammation histological score (0 to 3): 2.00 ± 0.00
  Necrosis histological score (0 to 3): 1.25 ± 0.36
  Total damage (sum of histological scores except vacuolization): 7.75 ± 0.70
  Tubular transformation histological score (0 to 3): 2.00 ± 0.37
  Vacuolization histological score (0 to 3): 1.17 ± 0.17
L-arginine-treated rats; L-arginine-induced necrotic pancreatitis model
  protection of endocrine and exocrine pancreatic cells: partially or fully protected both the endocrine and exocrine pancreatic cells
